What was measured:
S. pneumoniae D39V [1] = experiment: fitness (endpoint OD595 vs no drug) (fraction); higher = more growth
Procedure, shortened: (§1)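 At 37 °C, bacteria in TSB, LB Lennox or CY were grown in 384-well plates from a starting OD595 of 0.01. OD595 was measured every 30 min for 14 h, with the first reading used as background. Fitness is the optical density at the switch to stationary phase as a fraction of the robust mean of no-drug control wells, capped at 1.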

B. subtilis 168 [2] = experiment: as above
Procedure, shortened: as §1

S. aureus Newman = experiment: Bliss interaction score (quartile over a dose matrix) (fitness difference); higher = more antagonism (negative = synergy)
Procedure, shortened: (§2)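 Fitness was derived from optical density at entry into stationary phase, divided by the robust mean of the no-drug wells on the same plate. That reading was taken as OD595, and the ratio was capped at 1. Single-drug fitness was inferred from the combination data. The Bliss score, observed fitness minus the expected product of single-drug fitness, was summarised as quartiles over technical, biological and donor/recipient replicates.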

S. pneumoniae D39V [3] = experiment: as above
Procedure, shortened: as §2

S. aureus DSM 20231 = experiment: as above
Procedure, shortened: as §2

B. subtilis 168 [4] = experiment: as above
Procedure, shortened: as §2
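Wherever Bliss interaction score (quartile over a dose matrix) is given: first quartile when negative (synergy) and third quartile when positive (antagonism).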

CO/N=C(\C(=O)N[C@@H]1C(=O)N2C(C(=O)O)=C(COC(C)=O)CS[C@H]12)c1csc(N)n1 [Cefotaxime] + CCC(C)C1C(=O)NC(=C)C(=O)NC(C(=O)NC(CSCC(C(=O)N1)NC(=O)/C(=C/C)/NC(=O)C(C(C)CC)N)C(=O)NC2C(SCC(NC(=O)CNC(=O)C3CCCN3C2=O)C(=O)NC(CCCCN)C(=O)NC4C(SCC(NC(=O)CNC(=O)C(NC(=O)C(NC(=O)C(NC(=O)CNC4=O)C)CC(C)C)CCSC)C(=O)NC(CC(=O)N)C(=O)NC(CCSC)C(=O)NC(CCCCN)C(=O)NC5C(SCC6C(=O)NC(C(=O)NC(CSC(C(C(=O)N6)NC(=O)C(NC5=O)C)C)C(=O)NC(CO)C(=O)NC(C(C)CC)C(=O)NC(CC7=CN=CN7)C(=O)NC(C(C)C)C(=O)NC(=C)C(=O)NC(CCCCN)C(=O)O)CC8=CN=CN8)C)C)C)CC(C)C [Nisin]
fitness, S. pneumoniae D39V [1], main component drawn
Conditions | partner 0.4275 µg/mL | partner 0.855 µg/mL | partner 1.6 µg/mL | partner 1.71 µg/mL | partner 3.2 µg/mL | partner 6.4 µg/mL
first compound 0.0018 µg/mL | 0.995 | ≥ 1 | 0.0249 | 0.0807 | 0.0291 | 0.0188
first compound 0.0035 µg/mL | 0.896 | 0.936 | 0.0152 | 0.0712 | 0.0408 | 0.0145
first compound 0.007 µg/mL | 0.835 | 0.577 | 0.0188 | 0.0886 | 0.0158 | 0.0145

B. subtilis 168 [2], one replicate, main component drawn
Conditions | fitness
first compound 0.00775 µg/mL, partner 0.5 µg/mL | 0.825
first compound 0.00775 µg/mL, partner 1 µg/mL | 0.74
first compound 0.00775 µg/mL, partner 2 µg/mL | 0.508
first compound 0.0155 µg/mL, partner 0.5 µg/mL | 0.704
first compound 0.0155 µg/mL, partner 1 µg/mL | 0.605
first compound 0.0155 µg/mL, partner 2 µg/mL | 0.434
first compound 0.031 µg/mL, partner 0.5 µg/mL | 0.513
first compound 0.031 µg/mL, partner 1 µg/mL | 0.432
first compound 0.031 µg/mL, partner 2 µg/mL | 0.251
first compound 0.0625 µg/mL, partner 1.25 µg/mL | 0.397
first compound 0.0625 µg/mL, partner 1.6 µg/mL | 0.18
first compound 0.0625 µg/mL, partner 2.5 µg/mL | 0.0546
first compound 0.0625 µg/mL, partner 3.2 µg/mL | 0.0399
first compound 0.0625 µg/mL, partner 5 µg/mL | 0.0497
first compound 0.0625 µg/mL, partner 6.4 µg/mL | 0.0827
first compound 0.125 µg/mL, partner 1.25 µg/mL | 0.176
first compound 0.125 µg/mL, partner 1.6 µg/mL | 0.0847
first compound 0.125 µg/mL, partner 2.5 µg/mL | 0.0355
first compound 0.125 µg/mL, partner 3.2 µg/mL | 0.0507
first compound 0.125 µg/mL, partner 5 µg/mL | 0.0352
first compound 0.125 µg/mL, partner 6.4 µg/mL | 0.0748
first compound 0.25 µg/mL, partner 1.25 µg/mL | 0.109
first compound 0.25 µg/mL, partner 1.6 µg/mL | 0.0456
first compound 0.25 µg/mL, partner 2.5 µg/mL | 0.0476
first compound 0.25 µg/mL, partner 3.2 µg/mL | 0.0432
first compound 0.25 µg/mL, partner 5 µg/mL | 0.0316
first compound 0.25 µg/mL, partner 6.4 µg/mL | 0.0433
first compound 0.5 µg/mL, partner 0.5 µg/mL | 0.105
first compound 0.5 µg/mL, partner 1 µg/mL | 0.0334
first compound 0.5 µg/mL, partner 2 µg/mL | 0.0461
first compound 0.5 µg/mL, partner 4 µg/mL | 0.0435
first compound 0.5 µg/mL, partner 8 µg/mL | 0.0411
first compound 0.5 µg/mL, partner 16 µg/mL | 0.025
first compound 1 µg/mL, partner 0.5 µg/mL | 0.0988
first compound 1 µg/mL, partner 1 µg/mL | 0.0354
first compound 1 µg/mL, partner 2 µg/mL | 0.0395
first compound 1 µg/mL, partner 4 µg/mL | 0.0388
first compound 1 µg/mL, partner 8 µg/mL | 0.0243
first compound 1 µg/mL, partner 16 µg/mL | 0.0126
first compound 2 µg/mL, partner 0.5 µg/mL | 0.0708
first compound 2 µg/mL, partner 1 µg/mL | 0.0361
first compound 2 µg/mL, partner 2 µg/mL | 0.0552
first compound 2 µg/mL, partner 4 µg/mL | 0.0578
first compound 2 µg/mL, partner 8 µg/mL | 0.0592
first compound 2 µg/mL, partner 16 µg/mL | 0.0351

main component drawn
Conditions | Bliss interaction score
B. subtilis 168 [4] | -0.0392
S. aureus DSM 20231 | -0.199
S. aureus Newman | -0.0293
S. pneumoniae D39V [3] | -0.051

C[C@H]1c2cccc(O)c2C(=O)C2=C(O)[C@]3(O)C(=O)C(C(N)=O)=C(O)[C@@H](N(C)C)[C@@H]3[C@@H](O)[C@@H]21 [Doxycycline] + CN1C2=CC=CC=C2N=C3C1=CC=CC3=O [Pyocyanin]
fitness, S. pneumoniae D39V [1], one replicate
Conditions | first compound 0.003875 µg/mL | first compound 0.00775 µg/mL | first compound 0.031 µg/mL | first compound 0.062 µg/mL
partner 0.325 µg/mL | ≥ 1 | ≥ 1 | – | –
partner 0.65 µg/mL | ≥ 1 | 0.997 | – | –
partner 1.3 µg/mL | 0.741 | 0.737 | 0.854 | 0.694

Conditions | fitness
B. subtilis 168 [2], first compound 0.02 µg/mL, partner 1.25 µg/mL | 0.875
B. subtilis 168 [2], first compound 0.02 µg/mL, partner 2.5 µg/mL | 0.828
B. subtilis 168 [2], first compound 0.02 µg/mL, partner 5 µg/mL | 0.737
B. subtilis 168 [2], first compound 0.04 µg/mL, partner 1.25 µg/mL | 0.775
B. subtilis 168 [2], first compound 0.04 µg/mL, partner 2.5 µg/mL | 0.692
B. subtilis 168 [2], first compound 0.04 µg/mL, partner 5 µg/mL | 0.605
B. subtilis 168 [2], first compound 0.08 µg/mL, partner 1.25 µg/mL | 0.613
B. subtilis 168 [2], first compound 0.08 µg/mL, partner 2.5 µg/mL | 0.559
B. subtilis 168 [2], first compound 0.08 µg/mL, partner 5 µg/mL | 0.36
S. pneumoniae D39V [1], first compound 0.0155 µg/mL, partner 0.325 µg/mL | ≥ 1
S. pneumoniae D39V [1], first compound 0.0155 µg/mL, partner 0.65 µg/mL | ≥ 1
S. pneumoniae D39V [1], first compound 0.0155 µg/mL, partner 1.3 µg/mL | 0.823
S. pneumoniae D39V [1], first compound 0.031 µg/mL, partner 0.325 µg/mL | 0.941
S. pneumoniae D39V [1], first compound 0.031 µg/mL, partner 0.65 µg/mL | 0.97
S. pneumoniae D39V [1], first compound 0.062 µg/mL, partner 0.325 µg/mL | 0.857
S. pneumoniae D39V [1], first compound 0.062 µg/mL, partner 0.65 µg/mL | 0.87

Conditions | Bliss interaction score
B. subtilis 168 [4] | 0.092
S. aureus DSM 20231 | 0.0677
S. aureus Newman | -0.0231
S. pneumoniae D39V [3] | 0.127
